# Test results published in US10030016B2 (Sunesis Pharmaceuticals, Inc., priority 2009, dated 2018).
# Where a name gives a salt, the structure may show the parent alone. Read-outs that look alike come from different tables or passages of the source.
# Key:
# PDK1 = PDK1 (Homo sapiens (Human), UniProt O15530); test: PDK1 kinase assay (coupled PDK1/AKT/FAM-crosstide assay, IMAP fluorescence polarization); type: biochemical; conditions: inhibition of phospo-PDK1 in vitro
# Method in brief: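 Coupled cascade: 0.75 nM PDK1 (51-359) → 10 nM AKT2 (140-467-PIFtide) → 100 nM FAM-crosstide. ATP 40 μM, 25° C, 30 min. IMAP FP (ex 485/em 530), 2 h binding. ΔmP vs conc, 4-param fit.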
# [1] = tested on: phospho-akt (Thr308) in PC-3 cells; test: Inhibition of phospho-akt (Thr308) in PC-3 cells, MSD phospho-akt 308 ELISA kit; type: cell-based; conditions: Homo sapiens, inhibition of P308 Akt in PC-3 cells, 2 hours, no serum, MSD, read-out: EC50
# Method in brief: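 Serum-free 2 h compound exposure of overnight-seeded PC-3 cells, threefold dilution series; lysates analysed on blocked MSD plates (3% BSA) for Thr308-phosphorylated Akt, normalised between DMSO and 5 μM wortmannin wells.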
# Sequence of PDK1 (O15530 51-359): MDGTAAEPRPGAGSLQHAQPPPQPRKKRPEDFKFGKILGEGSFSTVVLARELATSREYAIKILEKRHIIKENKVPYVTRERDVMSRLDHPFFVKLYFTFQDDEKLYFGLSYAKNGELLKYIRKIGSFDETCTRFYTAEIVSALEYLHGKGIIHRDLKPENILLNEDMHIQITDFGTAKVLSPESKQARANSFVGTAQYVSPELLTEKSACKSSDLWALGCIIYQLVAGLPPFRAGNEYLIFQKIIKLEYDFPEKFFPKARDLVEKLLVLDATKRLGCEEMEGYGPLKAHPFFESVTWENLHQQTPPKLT
Structure (SMILES),IC50 (PDK1),EC50 [1],"EC50 ([1]; PC-3, 2 h)"
"CC(C)Oc1cc(CNc2ncccc2C(=O)Nc2ccc(F)c(F)c2)cc(-c2c[nH]c3ncc(C(=O)NC4CC4)cc23)c1 [Example 4.1.1, N-cyclopropyl-3-(3-((3-(3,4-difluorophenylcarbamoyl)pyridin-2-ylamino)methyl)-5-isopropoxyphenyl)-1H-pyrrolo[2,3-b]pyridine-5-carboxamide]",100 to 1000 nM,> 10000 nM,–
CC(C)Oc1cc(CNc2ncccc2C(=O)Nc2ccc(C(F)(F)F)cc2)cc(-c2c[nH]c3ncc(C(=O)NC4CC4)cc23)c1 [Example 4.1.2],> 5000 nM,> 10000 nM,–
"CC(C)Oc1cc(CNc2ncccc2C(=O)NCc2ccc(F)c(F)c2)cc(-c2c[nH]c3ncc(C(=O)NC4CC4)cc23)c1 [Example 4.1.3, N-cyclopropyl-3-{3-[({3-[(3,4-difluoro-benzyl)carbamoyl]pyridin-2-yl}amino)methyl]-5-(propan-2-yloxy)phenyl}-1H-pyrrolo[2,3-b] pyridine-5-carboxamide]",< 100 nM,< 1000 nM,–
"CC(C)Oc1cc(CNc2ncccc2C(=O)NCc2cccc(F)c2)cc(-c2c[nH]c3ncc(C(=O)NC4CC4)cc23)c1 [Example 4.1.4, N-cyclopropyl-3-{3-[({3-[(3-fluorobenzyl)carbamoyl]pyridin-2-yl}amino)methyl]-5-(propan-2-yloxy)phenyl}-1H-pyrrolo [2,3-b]pyridine-5-carboxamide]",< 100 nM,1000 to 10000 nM,–
"CC(C)Oc1cc(CNc2ncccc2C(=O)NCC(F)(F)F)cc(-c2c[nH]c3ncc(C(=O)NC4CC4)cc23)c1 [Example 4.1.5, N-cyclopropyl-3-{3-(propan-2-yloxy)-5-[({3-[(2,2,2-trifluoroethyl)carbamoyl]pyridin-2-yl}amino)methyl]phenyl}-1H-pyrrolo[2,3-b] pyridine-5-carboxamide]",> 5000 nM,> 10000 nM,–
"CC(C)Oc1cc(CNc2ncccc2C(=O)N(C)C2CCCCC2)cc(-c2c[nH]c3ncc(C(=O)NC4CC4)cc23)c1 [Example 4.1.6, 3-{3-[({3-[cyclohexyl(methyl)carbamoyl]pyridin-2-yl}amino)methyl]-5-(propan-2-yloxy)phenyl}-N-cyclopropyl-1H-pyrrolo[2,3-b]pyridine-5-carboxamide]",> 5000 nM,> 10000 nM,–
"CC(C)Oc1cc(CNc2ncccc2C(=O)NC2CC2)cc(-c2c[nH]c3ncc(C(=O)NC4CC4)cc23)c1 [Example 4.1.7, N-cyclopropyl-3-[3-({[3-(cyclopropylcarbamoyl)pyridin-2-yl]amino}methyl)-5-(propan-2-yloxy)phenyl]-1H-pyrrolo[2,3-b] pyridine-5-carboxamide]",1000 to 5000 nM,1000 to 10000 nM,–
"CC(C)Oc1cc(CNc2ncccc2C(=O)N(C)c2cccc(F)c2)cc(-c2c[nH]c3ncc(C(=O)NC4CC4)cc23)c1 [Example 4.1.8, N-cyclopropyl-3-{3-[({3-[(3-fluorophenyl)(methyl)carbamoyl]pyridin-2-yl}amino)methyl]-5-(propan-2-yloxy)phenyl}-1H-pyrrolo[2,3-b] pyridine-5-carboxamide]",> 5000 nM,1000 to 10000 nM,–
"CC(C)Oc1cc(CNc2ncccc2C(=O)N(C)c2ccc(F)cc2)cc(-c2c[nH]c3ncc(C(=O)NC4CC4)cc23)c1 [Example 4.1.9, N-cyclopropyl-3-{3-[({3-[(4-fluorophenyl)(methyl)carbamoyl]pyridin-2-yl}amino)methyl]-5-(propan-2-yloxy)phenyl}-1H-pyrrolo[2,3-b] pyridine-5-carboxamide]",> 5000 nM,1000 to 10000 nM,–
"CC(C)Oc1cc(CNc2ncccc2C(=O)N(C)C2CC2)cc(-c2c[nH]c3ncc(C(=O)NC4CC4)cc23)c1 [Example 4.1.10, N-cyclopropyl-3-{3-[({3-[cyclopropyl(methyl)carbamoyl]pyridin-2-yl}amino)methyl]-5-(propan-2-yloxy)phenyl}-1H-pyrrolo[2,3-b] pyridine-5-carboxamide]",> 5000 nM,1000 to 10000 nM,–
"CC(C)Oc1cc(CNc2ncccc2C(=O)NCC2CC2)cc(-c2c[nH]c3ncc(C(=O)NC4CC4)cc23)c1 [Example 4.1.11, N-cyclopropyl-3-{3-[({3-[(cyclopropylmethyl)carbamoyl]pyridin-2-yl}amino)methyl]-5-(propan-2-yloxy)phenyl}-1H-pyrrolo[2,3-b] pyridine-5-carboxamide]",100 to 1000 nM,1000 to 10000 nM,–
"CC(C)Oc1cc(CNc2ncccc2C(=O)Nc2c(F)cccc2F)cc(-c2c[nH]c3ncc(C(=O)NC4CC4)cc23)c1 [Example 4.1.12, N-cyclopropyl-3-{3-[({3-[(2,6-difluorophenyl)carbamoyl]pyridin-2-yl}amino)methyl]-5-(propan-2-yloxy)phenyl}-1H-pyrrolo[2,3-b] pyridine-5-carboxamide]",1000 to 5000 nM,> 10000 nM,–
"CC(C)Oc1cc(CNc2ncccc2C(=O)N[C@@H](C)c2ccccc2)cc(-c2c[nH]c3ncc(C(=O)NC4CC4)cc23)c1 [Example 4.1.13, N-cyclopropyl-3-[3-{[(3-{[(1S)-1-phenylethyl]carbamoyl}pyridin-2-yl)amino]methyl}-5-(propan-2-yloxy)phenyl]-1H-pyrrolo[2,3-b] pyridine-5-carboxamide]",< 100 nM,1000 to 10000 nM,–
"Cc1ccc(CNC(=O)c2cccnc2NCc2cc(OC(C)C)cc(-c3c[nH]c4ncc(C(=O)NC5CC5)cc34)c2)o1 [Example 4.1.14, N-cyclopropyl-3-[3-{[(3-{[(5-methylfuran-2-yl)methyl]carbamoyl}pyridin-2-yl)amino]methyl}-5-(propan-2-yloxy)phenyl]-1H-pyrrolo[2,3-b] pyridine-5-carboxamide]",< 100 nM,1000 to 10000 nM,–
"CC(C)Oc1cc(CNc2ncccc2C(=O)NC(C)(C)C)cc(-c2c[nH]c3ncc(C(=O)NC4CC4)cc23)c1 [Example 4.1.15, 3-[3-({[(3-tert-butylcarbamoyl)pyridin-2-yl]amino}methyl)-5-(propan-2-yloxy)phenyl]-N-cyclopropyl-1H-pyrrolo[2,3-b] pyridine-5-carboxamide]",> 5000 nM,1000 to 10000 nM,–
"C#CCNC(=O)c1cccnc1NCc1cc(OC(C)C)cc(-c2c[nH]c3ncc(C(=O)NC4CC4)cc23)c1 [Example 4.1.16, N-cyclopropyl-3-[3-(propan-2-yloxy)-5-({[3-(prop-2-yn-1-ylcarbamoyl)pyridin-2-yl]amino}methyl)phenyl]-1H-pyrrolo[2,3-b] pyridine-5-carboxamide]",100 to 1000 nM,1000 to 10000 nM,–

# Continued, values first:
IC50 (PDK1),EC50 [1],"EC50 ([1]; PC-3, 2 h)",Structure (SMILES)
< 100 nM,< 1000 nM,–,"Cn1cnc2cnc3ccc(-c4ccc(CNc5ncc(C#N)nc5C(=O)NCc5ccc(F)c(F)c5)s4)cc3c21 [Example 3.81, 6-cyano-N-(3,4-difluorobenzyl)-3-(((5-(1-methyl-1H-imidazo [4,5-c]quinolin-8-yl)thiophen-2-yl)methyl)amino)pyrazine-2-carboxamide (TFA salt)]"
< 100 nM,< 1000 nM,–,"Cn1cnc2cnc3ccc(-c4ccc(CNc5ncc(C#N)nc5C(=O)NCc5ccc(F)cc5)s4)cc3c21 [Example 3.82, 6-cyano-N-(4-fluorobenzyl)-3-(((5-(1-methyl-1H-imidazo [4,5-c]quinolin-8-yl)thiophen-2-yl)methyl)amino)pyrazine-2-carboxamide (TFA salt)]"
< 100 nM,< 1000 nM,–,"N#Cc1cnc(NCc2ccc(-c3ccc4ncnc(N)c4c3)s2)c(C(=O)NCc2ccc(F)cc2)n1 [Example 3.83, 3-(((5-(4-aminoquinazolin-6-yl)thiophen-2-yl)methyl)amino)-6-cyano-N-(4-fluorobenzyl)pyrazine-2-carboxamide (TFA salt)]"
100 to 1000 nM,1000 to 10000 nM,–,"CN(Cc1ccc(F)c(F)c1)C(=O)c1nccnc1NCc1ccc(-c2ccc3ncnc(N)c3c2)s1 [Example 3.84, 3-({[5-(4-aminoquinazolin-6-yl)thiophen-2-yl]methyl}amino)-N-(3,4-difluorobenzyl)-N-methylpyrazine-2-carboxamide (TFA salt)]"
1000 to 5000 nM,–,> 10000 nM,"Nc1ncnc2ccc(-c3ccc(CNc4ncccc4C(=O)Nc4cc(F)cc(F)c4)s3)cc12 [Example 3.85, 2-({[5-(4-aminoquinazolin-6-yl)thiophen-2-yl]methyl}amino)-N-(3,5-difluorophenyl)-pyridine-3-carboxamide (TFA salt)]"
1000 to 5000 nM,> 10000 nM,–,C[C@H](NC(=O)c1cnccc1NCc1ccc(-c2ccc3ncnc(N)c3c2)s1)c1ccc(F)c(F)c1 [Example 3.86]
1000 to 5000 nM,> 10000 nM,–,C[C@H](NC(=O)c1c(NCc2ccc(-c3ccc4ncnc(N)c4c3)s2)ncc(Br)c1N)c1ccc(F)c(F)c1 [Example 3.87]
< 100 nM,< 1000 nM,–,"Nc1ncnc2ccc(-c3ccc(CNc4ncccc4C(=O)NCc4ccc(F)c(F)c4)s3)cc12 [Example 4.4, 2-(((5-(4-aminoquinazolin-6-yl)thiophen-2-yl)methyl)amino)-N-(3,4-difluorobenzyl)nicotinamide]"
< 100 nM,> 10000 nM,–,"O=C(NCc1ccc(F)c(F)c1)c1cccnc1NCc1ccc(-c2ccc3ncccc3c2)s1 [Example 4.5, N-(3,4-difluorobenzyl)-2-(((5-(quinolin-6-yl)thiophen-2-yl)methyl)amino)nicotinamide]"
100 to 1000 nM,1000 to 10000 nM,–,"O=C(NCc1ccc(F)c(F)c1)c1cccnc1NCc1ccc(-c2c[nH]c3ncncc23)s1 [Example 4.7, 2-(((5-(7H-pyrrolo[2,3-d]pyrimidin-5-yl)thiophen-2-yl)methyl)amino)-N-(3,4-difluorobenzyl)nicotinamide]"
